Results on 23 compounds are retold here after patent US7241791B2, “Substituted 4-(indazol-3-yl)phenols” (Wyeth, priority 2002, dated 2007).

Each structure is given as a SMILES string.

Assay [1] has as its target T1, human ERα (Homo sapiens, UniProt P03372).
T1 sequence (P03372 1-595): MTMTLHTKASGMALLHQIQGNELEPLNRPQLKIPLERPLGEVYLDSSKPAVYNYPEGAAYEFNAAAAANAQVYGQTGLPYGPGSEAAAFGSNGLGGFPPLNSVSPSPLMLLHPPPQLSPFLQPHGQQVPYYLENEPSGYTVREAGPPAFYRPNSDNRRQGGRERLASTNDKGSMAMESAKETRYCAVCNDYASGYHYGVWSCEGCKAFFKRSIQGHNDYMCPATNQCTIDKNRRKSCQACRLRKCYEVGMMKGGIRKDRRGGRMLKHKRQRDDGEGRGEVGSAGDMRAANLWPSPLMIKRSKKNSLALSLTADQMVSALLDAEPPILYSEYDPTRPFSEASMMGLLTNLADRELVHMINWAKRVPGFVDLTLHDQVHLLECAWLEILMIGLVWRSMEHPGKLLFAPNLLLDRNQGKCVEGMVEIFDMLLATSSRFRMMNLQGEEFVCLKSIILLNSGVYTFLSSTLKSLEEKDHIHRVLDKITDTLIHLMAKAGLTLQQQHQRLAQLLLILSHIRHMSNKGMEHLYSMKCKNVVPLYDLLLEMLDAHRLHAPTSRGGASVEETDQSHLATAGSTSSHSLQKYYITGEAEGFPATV
The assay is described as follows: IL-6 expression (ELISA, ER/IL-6) in Ad5-wt-hERα infected HAECT-1 cells. The settings on record: for ER/IL-6 % E2: efficacy relative to the maximal inhibition observed with E2.

Assay [2] concerns the target T1, human ERα. In words: Creatine kinase expression (ER/CK) in Ad5-wt-hERα infected HAECT-1 cells. The settings on record: for ER/CK % E2: efficacy relative to the maximal stimulation observed with E2.
Assay [3] deals with T1, human ERα. In words: NF-κB luciferase reporter (ER/NF-KB-luc) in Ad5-wt-hERα infected HAECT-1 cells. The settings on record: for IC50: ER/NF-KB-luc IC50, Ad5-wt-ER infected HAECT-1 cells, IL-1β; for Emax: HAECT1, read-out: ER/NF-KB-luc % E2, efficacy relative to the maximal inhibition observed with E2.

With `Cn1nc(-c2ccc(O)cc2)c2cccc(C(F)(F)F)c21` [Example 169, 4-[1-methyl-7-(trifluoromethyl)-1H-indazol-3-yl]phenol], at human ERα [1], the IC50 amounted to 65 nM and the “ER/IL-6 % E2” value came out at 65 % E2. Also, at human ERα [2], the EC50 was 364 nM and the “ER/CK % E2” value is 38 % E2. At human ERα [3], inhibition was half-maximal at 65 nM (IC50) and the Emax stood at 69%.
In the case of `Oc1ccc(-c2nn(-c3ccc(Br)cc3)c3cc(O)ccc23)c(O)c1` [Example 7, 4-[1-(4-bromophenyl)-6-hydroxy-1H-indazol-3-yl]benzene-1,3-di I], on human ERα [1], the IC50 came to 246 nM and the “ER/IL-6 % E2” value stood at 77 % E2. For the same compound, on human ERα [2], the EC50 was determined as 1830 nM and the “ER/CK % E2” value is listed as 54 % E2. In addition, on human ERα [3], the IC50 came out at 90 nM and the Emax is 92%.
With `Oc1ccc(-c2nn(Cc3ccccc3)c3c(F)cccc23)cc1` [Example 145, 4-(1-benzyl-7-fluoro-1H-indazol-3-yl)phenol], on human ERα [1], half-maximal inhibition (IC50) required 97 nM and the “ER/IL-6 % E2” value worked out at 60 % E2. On human ERα [2], the half-maximal effective concentration (EC50) came out at 439 nM and the “ER/CK % E2” value was 48 % E2. Also, on human ERα [3], half-maximal inhibition (IC50) was put at 125 nM and the Emax worked out at 66%.
Consider `COc1ccc(-n2nc(-c3ccc(O)cc3O)c3ccc(O)cc32)cc1` [Example 11, 4-[6-hydroxy-1-(4-methoxyphenyl)-1H-indazol-3-yl]benzene-1,3-diol], for which, at human ERα [1], 2320 nM corresponded to half-maximal inhibition (IC50) and the “ER/IL-6 % E2” value was 91 % E2. Moreover, on human ERα [2], a half-maximal response (EC50) required 114 nM and the “ER/CK % E2” value stood at 26 % E2. In addition, on human ERα [3], half-maximal inhibition (IC50) was put at 60 nM and the Emax came out at 54%.
As for `Cn1nc(-c2ccc(O)cc2)c2cccc(Cl)c21` [Example 126, 4-(7-chloro-1-methyl-1H-indazol-3-yl)phenol], on human ERα [1], the IC50 came out at 122 nM and the “ER/IL-6 % E2” value was found to be 52 % E2. On human ERα [2], the EC50 was determined as 387 nM and the “ER/CK % E2” value turned out to be 52 % E2. In addition, on human ERα [3], the concentration for half-maximal inhibition (IC50) was determined as 134 nM and the Emax was determined as 85%.
Consider `Oc1ccc(-c2nn(-c3cccc(Br)c3)c3cc(O)ccc23)c(O)c1` [Example 14, 4-[1-(3-bromophenyl)-6-hydroxy-1H-indazol-3-yl]benzene-1,3-diol], for which, at human ERα [1], the IC50 is 761 nM and the “ER/IL-6 % E2” value stood at 67 % E2. For the same compound, on human ERα [3], the IC50 was determined as 53 nM and the Emax was determined as 73%.
For `CCCCn1nc(-c2ccc(O)cc2)c2ccccc21` [Example 139, 4-(1-butyl-1H-indazol-3-yl)phenol], on human ERα [1], the IC50 was 329 nM and the “ER/IL-6 % E2” value is on record as 40 % E2. On human ERα [2], the EC50 came out at 722 nM and the “ER/CK % E2” value is recorded as 36 % E2. At human ERα [3], half-maximal inhibition (IC50) required 183 nM and the Emax was 67%.
Turning to `Oc1ccc(-c2nn(-c3ccc(OC(F)(F)F)cc3)c3cc(O)ccc23)c(O)c1` [Example 13, 4-{6-hydroxy-1-[4-(trifluoromethoxy)phenyl]-1H-indazol-3-yl}benzene-1,3-diol], on human ERα [1], it took 601 nM to reach half-maximal inhibition (IC50) and the “ER/IL-6 % E2” value worked out at 83 % E2. Besides, at human ERα [2], the EC50 was 828 nM and the “ER/CK % E2” value came out at 47 % E2. Besides, on human ERα [3], the IC50 stood at 133 nM and the Emax stood at 97%.
With `COc1ccccc1-n1nc(-c2ccc(O)cc2O)c2ccc(O)cc21` [Example 12, 4-[6-hydroxy-1-(2-methoxyphenyl)-1H-indazol-3-yl]benzene-1,3-diol], on human ERα [1], the IC50 was 7610 nM and the “ER/IL-6 % E2” value is 73 % E2. In addition, at human ERα [2], the EC50 stood at 1200 nM and the “ER/CK % E2” value is 58 % E2. At human ERα [3], the IC50 is 208 nM and the Emax is 61%.
For `N#Cc1ccc(-n2nc(-c3ccc(O)cc3O)c3ccc(O)cc32)cc1` [Example 15, 4-[3-(2,4-dihydroxyphenyl)-6-hydroxy-1H-indazol-1-yl]benzonitrile], on human ERα [1], the IC50 was found to be 8130 nM and the “ER/IL-6 % E2” value worked out at 110 % E2. For the same compound, at human ERα [3], half-maximal inhibition (IC50) was put at 164 nM and the Emax amounted to 94%.
Consider `Oc1ccc(-c2nn(-c3ccccc3Cl)c3cc(O)ccc23)c(O)c1` [Example 16, 4-[1-(2-chlorophenyl)-6-hydroxy-1H-indazol-3-yl]benzene-1,3-diol], for which, on human ERα [1], half-maximal inhibition (IC50) required 81 nM and the “ER/IL-6 % E2” value is 58 % E2. In addition, on human ERα [2], the midpoint of the response, the EC50, lay at 438 nM and the “ER/CK % E2” value was 45 % E2. Further, on human ERα [3], the IC50 was 95 nM and the Emax amounted to 79%.
As to `C=CCn1nc(-c2ccc(O)cc2)c2cccc(F)c21` [Example 50, 4-(1-allyl-7-fluoro-1H-indazol-3-yl)phenol], at human ERα [2], a half-maximal effect (EC50) was put at 327 nM and the “ER/CK % E2” value turned out to be 43 % E2. For the same compound, on human ERα [3], the IC50 was 106 nM and the Emax worked out at 84%.
On to `Oc1ccc(-c2n[nH]c3cc(Cl)c(F)cc23)cc1` [Example 131, 4-(6-chloro-5-fluoro-1H-indazol-3-yl)phenol], for which, at human ERα [1], the IC50 was found to be 380 nM and the “ER/IL-6 % E2” value was 72 % E2. Also, on human ERα [2], the EC50 turned out to be 815 nM and the “ER/CK % E2” value was 65 % E2. Also, on human ERα [3], half-maximal inhibition (IC50) required 195 nM and the Emax is 82%.
As for `CCCCCn1nc(-c2ccc(O)cc2O)c2cccc(C(F)(F)F)c21` [Example 73, 4-[1-pentyl-7-(trifluoromethyl)-1H-indazol-3-yl]benzen-1,3-diol], at human ERα [2], the response was half-maximal at 103 nM (EC50) and the “ER/CK % E2” value is on record as 19 % E2. At human ERα [3], the IC50 amounted to 94 nM and the Emax was 76%.
On to `Cc1cccc2c(-c3ccc(O)cc3)nn(C(C)C)c12` [Example 39, 4-(1-isopropyl-7-methyl-1H-indazol-3-yl)phenol], for which, at human ERα [2], the EC50 stood at 57 nM and the “ER/CK % E2” value was found to be 46 % E2. Moreover, at human ERα [3], the IC50 came out at 9 nM and the Emax is 89%.
Take `CC(C)(C)OC(=O)NCC(=O)NCC(=O)Oc1ccc(-c2nn(C3CCCC3)c3c(F)cccc23)cc1` [Example 116, 4-(1-cyclopentyl-7-fluoro-1H-indazol-3-yl)phenyl N-(tert-butoxycarbonyl)glycylglycinate]: on human ERα [2], the response was half-maximal at 229 nM (EC50) and the “ER/CK % E2” value was determined as 25 % E2. At human ERα [3], the IC50 came out at 140 nM and the Emax came out at 63%.
The like results for `CC(C)n1nc(-c2ccc(O)cc2)c2cccc(-c3ccc(O)c(O)c3)c21` [Example 231, 4-[3-(4-hydroxyphenyl)-1-isopropyl-1H-indazol-7-yl]benzene-1,2-diol] were, in that order, 3250 nM, 32 % E2, 382 nM and 78%.
In the case of `Cn1nc(-c2ccc(O)cc2)c2cc(F)ccc21` [Example 168, 4-(5-fluoro-1-methyl-1H-indazol-3-yl)phenol], on human ERα [2], the response was half-maximal at 1370 nM (EC50) and the “ER/CK % E2” value was found to be 86 % E2. Besides, on human ERα [3], the IC50 turned out to be 347 nM and the Emax was 95%.
As for `CCCn1nc2c(Cl)cccc2c1-c1ccc(O)cc1C` [Example 79, 4-(7-chloro-2-propyl-2H-indazol-3-yl)-3-methylphenol], on human ERα [2], the EC50 stood at 734 nM and the “ER/CK % E2” value is listed as 52 % E2. Further, at human ERα [3], the IC50 was 92 nM and the Emax is 93%.
For `Oc1ccc(-c2n[nH]c3c(F)cccc23)cc1` [Example 203, 4-(7-fluoro-1H-indazol-3-yl)phenol], at human ERα [2], the midpoint of the response, the EC50, lay at 1070 nM and the “ER/CK % E2” value was determined as 48 % E2. For the same compound, on human ERα [3], the IC50 turned out to be 196 nM and the Emax turned out to be 117%.
`CC(C)n1nc2c(F)cccc2c1-c1ccc(O)cc1` [Example 56, 4-(7-fluoro-2-isopropyl-2H-indazol-3-yl)phenol]: on human ERα [2], the EC50 was found to be 477 nM and the “ER/CK % E2” value came out at 47 % E2. Moreover, on human ERα [3], the IC50 came out at 14 nM and the Emax worked out at 96%.
Take `CC(C)n1nc2c(Cl)cccc2c1-c1ccc(O)cc1` [Example 46, 4-(7-chloro-2-isopropyl-2H-indazol-3-yl)phenol]: on human ERα [2], the “ER/CK % E2” value was 67 % E2. Moreover, the Emax on human ERα [3] worked out at 102%.
`Oc1ccc(-c2nn(Cc3ccccc3)c3c(Cl)cccc23)c(O)c1` [Example 149, 4-(1-benzyl-7-chloro-1H-indazol-3-yl)benzene-1,3-diol]: on human ERα [1], inhibition was half-maximal at 115 nM (IC50) and the “ER/IL-6 % E2” value came to 49 % E2. Besides, at human ERα [2], a half-maximal response (EC50) required 527 nM and the “ER/CK % E2” value is 30 % E2. On human ERα [3], the IC50 is 319 nM and the Emax was 67%.
